Source: the NIST ThermoML archive (doi:10.1021/je400055v)

Conditions: Liquid, Vibrating tube method

Cc1cccc(O)c1 [3-methylphenol]
Conditions | mass density [kg/m3]
313.22 K, 1001 kPa | 1019.1
313.22 K, 2012 kPa | 1019.8
313.22 K, 3024 kPa | 1020.3
313.22 K, 4007 kPa | 1020.9
313.22 K, 4992 kPa | 1021.4
313.22 K, 6027 kPa | 1022
313.22 K, 7013 kPa | 1022.6
313.22 K, 8000 kPa | 1023.1
313.22 K, 9008 kPa | 1023.7
313.22 K, 10014 kPa | 1024.3
313.22 K, 11015 kPa | 1024.8
313.22 K, 12040 kPa | 1025.4
313.22 K, 13022 kPa | 1026
313.22 K, 14023 kPa | 1026.4
313.22 K, 15002 kPa | 1026.9
313.22 K, 16009 kPa | 1027.5
313.22 K, 17020 kPa | 1028
313.22 K, 18021 kPa | 1028.5
313.22 K, 19016 kPa | 1029
313.22 K, 20026 kPa | 1029.6
313.22 K, 21024 kPa | 1030.1
313.22 K, 22026 kPa | 1030.7
313.22 K, 23030 kPa | 1031.1
313.22 K, 24017 kPa | 1031.6
313.22 K, 25019 kPa | 1032.2
322.9 K, 1014 kPa | 1011.2
322.9 K, 2041 kPa | 1011.8
322.9 K, 3002 kPa | 1012.4
322.9 K, 4014 kPa | 1013
322.9 K, 5012 kPa | 1013.6
322.9 K, 6022 kPa | 1014.2
322.9 K, 7020 kPa | 1014.7
322.9 K, 8018 kPa | 1015.3
322.9 K, 9020 kPa | 1015.9
322.9 K, 10005 kPa | 1016.4
322.9 K, 11018 kPa | 1017
322.9 K, 12019 kPa | 1017.6
322.9 K, 13017 kPa | 1018.2
322.9 K, 14010 kPa | 1018.7
322.9 K, 15022 kPa | 1019.3
322.9 K, 16000 kPa | 1019.8
322.9 K, 17011 kPa | 1020.4
322.9 K, 18018 kPa | 1020.9
322.9 K, 19018 kPa | 1021.4
322.9 K, 20009 kPa | 1022
322.9 K, 21019 kPa | 1022.6
322.9 K, 22019 kPa | 1023.1
322.9 K, 23006 kPa | 1023.6
322.9 K, 24012 kPa | 1024.1
322.9 K, 25019 kPa | 1024.7
332.61 K, 1018 kPa | 1003.3
332.61 K, 2014 kPa | 1004
332.61 K, 3003 kPa | 1004.5
332.61 K, 4030 kPa | 1005.2
332.61 K, 5000 kPa | 1005.8
332.61 K, 6022 kPa | 1006.4
332.61 K, 7020 kPa | 1006.9
332.61 K, 8020 kPa | 1007.5
332.61 K, 9003 kPa | 1008.1
332.61 K, 10014 kPa | 1008.7
332.61 K, 11012 kPa | 1009.3
332.61 K, 12000 kPa | 1009.9
332.61 K, 13000 kPa | 1010.4
332.61 K, 14028 kPa | 1011
332.61 K, 15028 kPa | 1011.6
332.61 K, 16023 kPa | 1012.2
332.61 K, 17000 kPa | 1012.7
332.61 K, 18008 kPa | 1013.3
332.61 K, 19000 kPa | 1013.9
332.61 K, 20001 kPa | 1014.4
332.61 K, 21013 kPa | 1014.9
332.61 K, 22010 kPa | 1015.5
332.61 K, 23007 kPa | 1016
332.61 K, 24000 kPa | 1016.6
332.61 K, 25008 kPa | 1017.1
342.27 K, 2018 kPa | 995.8
342.27 K, 2999 kPa | 996.4
342.27 K, 3998 kPa | 997
342.27 K, 4976 kPa | 997.6
342.27 K, 5984 kPa | 998.3
342.27 K, 7059 kPa | 998.9
342.27 K, 8070 kPa | 999.7
342.27 K, 8967 kPa | 1000.2
342.27 K, 9994 kPa | 1000.8
342.27 K, 10921 kPa | 1001.4
342.27 K, 11964 kPa | 1002.1
342.27 K, 12971 kPa | 1002.6
342.27 K, 13954 kPa | 1003.2
342.27 K, 14960 kPa | 1004
342.27 K, 15941 kPa | 1004.3
342.27 K, 16963 kPa | 1005.1
342.27 K, 17992 kPa | 1005.8
342.27 K, 18963 kPa | 1006.2
342.27 K, 19996 kPa | 1006.7
342.27 K, 21003 kPa | 1007.5
342.27 K, 21974 kPa | 1008
342.27 K, 22968 kPa | 1008.7
342.27 K, 24051 kPa | 1009.2
342.27 K, 24971 kPa | 1009.7
352.06 K, 1951 kPa | 988.5
352.06 K, 2979 kPa | 989.1
352.06 K, 4034 kPa | 989.8
352.06 K, 4966 kPa | 990.3
352.06 K, 5929 kPa | 990.9
352.06 K, 7014 kPa | 991.6
352.06 K, 8011 kPa | 992.2
352.06 K, 8921 kPa | 992.8
352.06 K, 9982 kPa | 993.4
352.06 K, 10938 kPa | 994
352.06 K, 11975 kPa | 994.6
352.06 K, 12999 kPa | 995.3
352.06 K, 13907 kPa | 995.8
352.06 K, 14981 kPa | 996.5
352.06 K, 15966 kPa | 997.1
352.06 K, 16996 kPa | 997.7
352.06 K, 17984 kPa | 998.3
352.06 K, 18991 kPa | 998.9
352.06 K, 20005 kPa | 999.5
352.06 K, 21038 kPa | 1000.1
352.06 K, 22019 kPa | 1000.6
352.06 K, 23001 kPa | 1001.2
352.06 K, 24029 kPa | 1001.8
352.06 K, 24969 kPa | 1002.3
361.9 K, 1990 kPa | 980.5
361.9 K, 3001 kPa | 981.2
361.9 K, 4024 kPa | 981.8
361.9 K, 5019 kPa | 982.5
361.9 K, 6014 kPa | 983.1
361.9 K, 7025 kPa | 983.7
361.9 K, 8019 kPa | 984.4
361.9 K, 9010 kPa | 985
361.9 K, 9978 kPa | 985.6
361.9 K, 11019 kPa | 986.3
361.9 K, 12038 kPa | 986.9
361.9 K, 13020 kPa | 987.6
361.9 K, 14021 kPa | 988.2
361.9 K, 15006 kPa | 988.8
361.9 K, 15970 kPa | 989.4
361.9 K, 16988 kPa | 990.1
361.9 K, 17991 kPa | 990.7
361.9 K, 19016 kPa | 991.4
361.9 K, 20042 kPa | 992
361.9 K, 20983 kPa | 992.6
361.9 K, 22034 kPa | 993.3
361.9 K, 23021 kPa | 993.9
361.9 K, 24011 kPa | 994.6
361.9 K, 24912 kPa | 995.1
